Reference: patent US20150366847A1, “COMBINATION OF GERANYLGERANYLACETONE AND IBUDILAST AND METHODS OF USING SAME” (MediciNova, Inc., priority 2014, published 2015)

How the values were obtained:
animal model for ALS = test: Rat model of ALS, brain mass; type: in vivo
[1] = tested on: animal model for Parkinson's disease; test: Rat model of Parkinson's disease, brain mass; type: in vivo
[2] = tested on: heat shock protein 70 (HSP70); details: mice subjected to an occlusion of the middle cerebral artery; cited from earlier work

| SMILES | brain mass (animal model for ALS) | brain mass [1] | induction of heat shock protein 70 (HSP70) [2] |
| --- | --- | --- | --- |
| CC(C)C(=O)c1c(C(C)C)nn2ccccc12 [ibudilast, 3-isobutyryl-2-isopropylpyrazolo[1,5-a]pyridine] | increase brain mass | increase brain mass |  |
| CC(=O)CCC=C(C)CC/C=C(\C)CC/C=C(\C)CCC=C(C)C (mixture of isomers) [GGA, Geranylgeranyl acetone] |  |  | inducer of heat shock protein 70 (HSP70) |
